The values below come from patent publication US5770178A, “Metal chelate forming peptides and use thereof” (Nihon Medi-Physics Co., Ltd., priority 1994, dated 1998).

Assay [1] concerns inflammation site (Staphylococcus aureus). The following applies: S. aureus inflammation rat, i.v. The method, then: Staphylococcus aureus 10^8 cells were suspended in 1 ml of physiological saline, and 100 μl of the suspension was intramuscularly administered to SD rats weighing about 220 g at the right calf. […] Thirty and 120 minutes after the peptide was injected, the animal was imaged with a gamma camera. Regions of interest were selected from the obtained image to determine a ratio T/B of the radioactivity in inflammation site (T) to the radioactivity in normal site (B).

Assay [2] deals with Tumor cells HEp2 (Human Epidermoid Carcinoma). Nature of the assay: Imaging of tumor in model mouse, tumor/muscle radioactivity ratio. It counts as in vivo, BALB/C nude mouse. The following applies: i.v. The method, then: Tumor cells HEp2 (5×10^6 cells, Human Epidermoid Carcinoma; ATCC No. CCL 23) were suspended in 1.0 ml of medium (Minimum essential medium (Eagle's) with Earle's BSS, 90% fetal bovine serum, 10%), and 100 μl of the suspension was subcutaneously injected to BALB/C nude mouse (6 weeks age) at the body side. […] Five and 20 minutes after the injection, the animal was imaged with a gamma camera.
Immediately after the imaging, the animal was sacrificed and examined for the distribution of the radioactivity in each organ using NaI single channel analyzer to determine a ratio of the radioactivity in tumor site to the radioactivity in muscle site (T/B ratio).

Where no end group is shown, it is not given here.

As for Tc-99m-KYCGGKTKPREQQYNSTYRVV-NH2, the “Imaging of inflammation site (gamma camera)” value in assay [1] (30 and 120 minutes after injection) is on record as “clearly imaged”. The “ratio T/B of the radioactivity in inflammation site (T) to the radioactivity in normal site (B)” value in assay [1] (regions of interest of image, n=6) amounted to 3.26±0.18.

Take “Tc-99m-KYCAREPPTRTNAYWGQG (also: Tc-99m label)”: the “Imaging of tumor site (gamma camera)” value in assay [2] (20 minutes after injection) is “clearly imaged”. Besides, in assay [2] (twenty minutes after injection, n=3), the “ratio of the radioactivity in tumor site to the radioactivity in muscle site (T/B ratio)” value amounted to 4.50±0.71.
